# Measured values from patent publication US20220072101A1, “HARNESSING INFLAMMATION TO TREAT NEURODEVELOPMENTAL DISORDERS” (President and Fellows of Harvard College, priority 2019, published 2022).
# System: S1DZ neurons
# Assay: In vivo electrophysiology, firing rate of S1DZ neurons in awake mice
# Set-up: species or system mouse
# Experimental: Electrophysiological experiments were conducted in head-fixed mice trained to walk on a rotating running wheel. Prior to training, mice were implanted with custom crowns permitting head-fixing above the wheel and allowed to recover for one week before training. Mice were trained to walk on the wheel for three 10 min sessions daily for at least one week. Following training, mice were implanted with a multi-electrode array targeting the S1DZ and allowed to recover before testing. To assess IL-17a dependence of LPS-induced changes in neural activity, mice were injected i.p. with control antibodies or blocking antibody against IL-17a (1 mg/mouse), 30 min prior to i.p. vehicle or LPS injection. Baseline neural activity was measured while mice were running on the wheel immediately prior to the first injection. Following the first injection, mice were returned to their home cage. Post-injection (Test) neural activity during wheel running was measured 4 hrs after vehicle or LPS injection.
# Custom multi-electrode array scaffolds (drive bodies) were designed using 3D CAD software (SolidWorks®) and printed in Accura 55 Plastic™ (American Precision Prototyping®) as described previously^31,32. […]
# Firing rate was calculated across one second time windows during which animals were walking stably on the rotating wheel averaged across 25-50 trials per condition. […]
substance,measurement,setting,value
lipopolysaccharide [LPS],overall firing rate of S1DZ neurons,"MIA offspring, 4 hrs after LPS",a decrease in overall firing rate was observed
same,firing rate in the S1DZ,control (PBS) offspring,Neither LPS nor IL-17a blocking antibody treatment changed the firing rate
